Source: ChEMBL document CHEMBL1145817, “Conformationally constrained analogues of diacylglycerol. 19. Synthesis and protein kinase C binding affinity of diacylglycerol lactones bearing an N-hydroxylamide side chain” (J Med Chem, 2003)
pKi: −log10 of the molar value.

Target: Protein kinase C alpha type (Homo sapiens, UniProt P17252)
Assay: Binding affinity for Protein kinase C alpha C1a or C1b domain

pKi	SMILES
5.17	CC(C)CC(C/C=C1\CC(CO)(CN(O)C(=O)C(C)(C)C)OC1=O)CC(C)C (configuration not stated)
5.16	CC(C)CC(C/C=C1/CC(CO)(CN(O)C(=O)C(C)(C)C)OC1=O)CC(C)C (configuration not stated)
